Assay results: the NIST ThermoML archive (doi:10.1021/acs.jced.8b00132)
Values joined by “and” are separate entries in the source; they are usually repeats but may differ in a detail not shown here. Identical values can stand only once. Numbers after ± are expanded uncertainties.

O=C(C(F)(F)C(F)(F)F)C(F)(C(F)(F)F)C(F)(F)F [dodecafluoro-2-methylpentan-3-one]
thermal conductivity (303.37 K, 4422 kPa, Liquid, transient hot wire): 0.05844 ± 0.0012 W/m/K
thermal conductivity (303.37 K, 4436 kPa, Liquid, transient hot wire): 0.05841 ± 0.0012 W/m/K
thermal conductivity (303.38 K, 22430 kPa, Liquid, transient hot wire): 0.06522 ± 0.0013 W/m/K
thermal conductivity (303.38 K, 22431 kPa, Liquid, transient hot wire): 0.06529 ± 0.0014 W/m/K
thermal conductivity (303.46 K, 36 kPa, Gas, transient hot wire): 0.01187 ± 0.0047 W/m/K
thermal conductivity (303.46 K, 38 kPa, Gas, transient hot wire): 0.01198 ± 0.00076 W/m/K
thermal conductivity (303.46 K, 91 kPa, Liquid, transient hot wire): 0.05636 ± 0.0012 W/m/K
thermal conductivity (303.46 K, 92 kPa, Liquid, transient hot wire): 0.05637 ± 0.0012 W/m/K
thermal conductivity (311.78 K, 60 kPa, Gas, transient hot wire): 0.01276 ± 0.0008 W/m/K
thermal conductivity (311.78 K, 63 kPa, Gas, transient hot wire): 0.01265 ± 0.00079 W/m/K
thermal conductivity (311.79 K, 63 kPa, Gas, transient hot wire): 0.01255 ± 0.00078 W/m/K
thermal conductivity (311.95 K, 34 kPa, Gas, transient hot wire): 0.01258 ± 0.00079 W/m/K
thermal conductivity (312.1 K, 61 kPa, Gas, transient hot wire): 0.01276 ± 0.00079 W/m/K
thermal conductivity (312.11 K, 63 kPa, Gas, transient hot wire): 0.0127 ± 0.00079 W/m/K
thermal conductivity (312.12 K, 63 kPa, Gas, transient hot wire): 0.01261 ± 0.00078 W/m/K
thermal conductivity (312.3 K, 34 kPa, Gas, transient hot wire): 0.01253 ± 0.00079 W/m/K
thermal conductivity (312.43 K, 61 kPa, Gas, transient hot wire): 0.01283 ± 0.0008 W/m/K
thermal conductivity (312.43 K, 63 kPa, Gas, transient hot wire): 0.01278 ± 0.0008 W/m/K
thermal conductivity (312.46 K, 63 kPa, Gas, transient hot wire): 0.01291 ± 0.00081 W/m/K
thermal conductivity (312.66 K, 34 kPa, Gas, transient hot wire): 0.01257 ± 0.00079 W/m/K
thermal conductivity (312.81 K, 61 kPa, Gas, transient hot wire): 0.01287 ± 0.00082 W/m/K
thermal conductivity (312.81 K, 63 kPa, Gas, transient hot wire): 0.01297 ± 0.00082 W/m/K
thermal conductivity (312.83 K, 63 kPa, Gas, transient hot wire): 0.01281 ± 0.00081 W/m/K
thermal conductivity (313.06 K, 34 kPa, Gas, transient hot wire): 0.01264 ± 0.0008 W/m/K
thermal conductivity (313.22 K, 61 kPa, Gas, transient hot wire): 0.01297 ± 0.00082 W/m/K
thermal conductivity (313.22 K, 63 kPa, Gas, transient hot wire): 0.01291 ± 0.00081 W/m/K
thermal conductivity (313.24 K, 63 kPa, Gas, transient hot wire): 0.01285 ± 0.0008 W/m/K
thermal conductivity (313.49 K, 34 kPa, Gas, transient hot wire): 0.01265 ± 0.0008 W/m/K
thermal conductivity (315 K, 42 kPa, Gas, hot wire): 0.01266 ± 0.00059 W/m/K and 0.01273 ± 0.0006 W/m/K
thermal conductivity (315.01 K, 24 kPa, Gas, hot wire): 0.01262 ± 0.00059 W/m/K and 0.01267 ± 0.00059 W/m/K
thermal conductivity (315.03 K, 68 kPa, Gas, hot wire): 0.01269 ± 0.0006 W/m/K
thermal conductivity (315.05 K, 69 kPa, Gas, hot wire): 0.01239 ± 0.0006 W/m/K
thermal conductivity (315.06 K, 73 kPa, Gas, hot wire): 0.01282 ± 0.00061 W/m/K
thermal conductivity (315.08 K, 73 kPa, Gas, hot wire): 0.0128 ± 0.0006 W/m/K
thermal conductivity (315.18 K, 42 kPa, Gas, hot wire): 0.0127 ± 0.0006 W/m/K
thermal conductivity (315.19 K, 24 kPa, Gas, hot wire): 0.01259 ± 0.00059 W/m/K
thermal conductivity (315.23 K, 68 kPa, Gas, hot wire): 0.01265 ± 0.00059 W/m/K
thermal conductivity (315.26 K, 68 kPa, Gas, hot wire): 0.01263 ± 0.00059 W/m/K
thermal conductivity (315.26 K, 73 kPa, Gas, hot wire): 0.01275 ± 0.0006 W/m/K and 0.01272 ± 0.0006 W/m/K
thermal conductivity (315.38 K, 24 kPa, Gas, hot wire): 0.01262 ± 0.00059 W/m/K
thermal conductivity (315.39 K, 24 kPa, Gas, hot wire): 0.01261 ± 0.00059 W/m/K
thermal conductivity (315.39 K, 42 kPa, Gas, hot wire): 0.01258 ± 0.00059 W/m/K and 0.0126 ± 0.00059 W/m/K
thermal conductivity (315.45 K, 73 kPa, Gas, hot wire): 0.01275 ± 0.0006 W/m/K and 0.01277 ± 0.0006 W/m/K
thermal conductivity (315.48 K, 67 kPa, Gas, hot wire): 0.01259 ± 0.00059 W/m/K
thermal conductivity (315.48 K, 68 kPa, Gas, hot wire): 0.01258 ± 0.00059 W/m/K
thermal conductivity (315.6 K, 24 kPa, Gas, hot wire): 0.01263 ± 0.00059 W/m/K
thermal conductivity (315.6 K, 42 kPa, Gas, hot wire): 0.01262 ± 0.00059 W/m/K
thermal conductivity (315.61 K, 41 kPa, Gas, hot wire): 0.01258 ± 0.00059 W/m/K
thermal conductivity (315.65 K, 73 kPa, Gas, hot wire): 0.01278 ± 0.0006 W/m/K
thermal conductivity (315.66 K, 73 kPa, Gas, hot wire): 0.01275 ± 0.0006 W/m/K
thermal conductivity (315.7 K, 67 kPa, Gas, hot wire): 0.01258 ± 0.00059 W/m/K and 0.01255 ± 0.00059 W/m/K
thermal conductivity (315.82 K, 24 kPa, Gas, hot wire): 0.01264 ± 0.00059 W/m/K and 0.01263 ± 0.00059 W/m/K
thermal conductivity (315.84 K, 41 kPa, Gas, hot wire): 0.01259 ± 0.00059 W/m/K
thermal conductivity (315.85 K, 42 kPa, Gas, hot wire): 0.01252 ± 0.00059 W/m/K
thermal conductivity (315.87 K, 73 kPa, Gas, hot wire): 0.01277 ± 0.00061 W/m/K and 0.01278 ± 0.00061 W/m/K
thermal conductivity (315.91 K, 67 kPa, Gas, hot wire): 0.01259 ± 0.00059 W/m/K
thermal conductivity (315.92 K, 67 kPa, Gas, hot wire): 0.01258 ± 0.00059 W/m/K
thermal conductivity (321.61 K, 79 kPa, Gas, transient hot wire): 0.01361 ± 0.00085 W/m/K
thermal conductivity (321.66 K, 65 kPa, Gas, transient hot wire): 0.01365 ± 0.00085 W/m/K
thermal conductivity (321.69 K, 64 kPa, Gas, transient hot wire): 0.01346 ± 0.00084 W/m/K
thermal conductivity (321.92 K, 78 kPa, Gas, transient hot wire): 0.01359 ± 0.00084 W/m/K
thermal conductivity (321.97 K, 66 kPa, Gas, transient hot wire): 0.01368 ± 0.0014 W/m/K
thermal conductivity (322.01 K, 64 kPa, Gas, transient hot wire): 0.01355 ± 0.00084 W/m/K
thermal conductivity (322.24 K, 77 kPa, Gas, transient hot wire): 0.01349 ± 0.00084 W/m/K
thermal conductivity (322.3 K, 66 kPa, Gas, transient hot wire): 0.01358 ± 0.001 W/m/K
thermal conductivity (322.35 K, 64 kPa, Gas, transient hot wire): 0.01367 ± 0.00085 W/m/K
thermal conductivity (322.6 K, 77 kPa, Gas, transient hot wire): 0.0137 ± 0.00085 W/m/K
thermal conductivity (322.68 K, 66 kPa, Gas, transient hot wire): 0.01369 ± 0.00099 W/m/K
thermal conductivity (322.7 K, 62 kPa, Gas, transient hot wire): 0.01363 ± 0.00085 W/m/K
thermal conductivity (322.99 K, 77 kPa, Gas, transient hot wire): 0.01375 ± 0.00086 W/m/K
thermal conductivity (323.07 K, 66 kPa, Gas, transient hot wire): 0.01363 ± 0.00085 W/m/K
thermal conductivity (323.09 K, 62 kPa, Gas, transient hot wire): 0.0139 ± 0.00087 W/m/K
thermal conductivity (329.07 K, 105 kPa, Gas, hot wire): 0.01379 ± 0.00065 W/m/K and 0.0138 ± 0.00065 W/m/K
thermal conductivity (329.1 K, 72 kPa, Gas, hot wire): 0.01387 ± 0.00066 W/m/K
thermal conductivity (329.1 K, 73 kPa, Gas, hot wire): 0.01371 ± 0.00065 W/m/K and 0.01367 ± 0.00065 W/m/K
thermal conductivity (329.12 K, 72 kPa, Gas, hot wire): 0.01364 ± 0.00065 W/m/K
thermal conductivity (329.19 K, 27 kPa, Gas, hot wire): 0.01341 ± 0.00063 W/m/K
thermal conductivity (329.19 K, 120 kPa, Gas, hot wire): 0.01389 ± 0.00065 W/m/K
thermal conductivity (329.2 K, 26 kPa, Gas, hot wire): 0.01335 ± 0.00063 W/m/K
thermal conductivity (329.21 K, 120 kPa, Gas, hot wire): 0.01385 ± 0.00065 W/m/K
thermal conductivity (329.22 K, 27 kPa, Gas, hot wire): 0.01411 ± 0.00067 W/m/K
thermal conductivity (329.23 K, 26 kPa, Gas, hot wire): 0.014 ± 0.00066 W/m/K
thermal conductivity (329.23 K, 105 kPa, Gas, hot wire): 0.01384 ± 0.00065 W/m/K and 0.01389 ± 0.00065 W/m/K
thermal conductivity (329.25 K, 72 kPa, Gas, hot wire): 0.01368 ± 0.00064 W/m/K
